According to patent publication US10864192B2, “Compositions and methods for inhibiting brain trauma-induced neurodegeneration and related conditions” (priority 2016, dated 2020):

What was measured:
Sprague-Dawley rats = test: Focal cerebral ischemia model (MCA ligation), pre-treatment; assay type: in vivo, rat
Protocol: Briefly, Human neuroblastoma SH-SY5Y cells were incubated in oxygen-glucose deprivation and hypoxia using serum- and glucose-free media and 95% N2 and 5% CO2 for 5 minutes. Adult male Sprague-Dawley rats (250 to 350 g weight) were anesthetized with chloral hydrate (0.4 g/kg, intraperitoneally) and right middle cerebral artery (MCA) was ligated for 60 minutes. The core body temperature of animals was maintained at 37° C. throughout the procedure.

SH-SY5Y cells = test: Cell proliferation of SH-SY5Y cells (MTS assay); assay type: cell-based, human; conditions: 30 uM, 24 hr
Protocol: SHSYSY cells were exposed for 24 hr to 30 uM concentration of (−)- and (+)-phenserine. After 24 hr cell proliferation was determined by MTS assay. *P,0.05, **p,0.01, and ***p,0.001 compared to control samples without drug.

[1] = target: acetylcholinesterase (AChE) (Homo sapiens (Human), UniProt P22303); test: RBC AChE inhibition after oral phenserine in humans; assay type: in vivo; conditions: 15 mg immediate release dose, TMax (1 hr)
Protocol: For pharmacodynamics AChE inhibition analyses: erythrocyte AChE levels were evaluated in whole blood samples by using methods known in the art. Briefly, duplicate samples of freshly collected whole blood were analyzed. Cholinesterase activity, U/L, was detected at 37° C. using a differential pH procedure on a Eurochem CL-10 (Rome, Italy). The time-course of enzyme inhibition was determined for each subject by expressing each mean post-phenserine administration AChE concentration as a fraction of the mean pre-administration resting level of AChE within the same individual. This value was then subtracted from 1 and multiplied by 100% to provide percent AchE inhibition.

[2] = in vivo
[3] = Plasma concentrations of phenserine and its metabolites in beagle dog plasma; assay type: in vivo
[4] = tested on: APP/PS1 AD transgenic (Tg) male mice; test: Concussive mTBI in APP/PS1 AD Tg mice, immunohistochemistry 72 hr post injury; assay type: in vivo, mouse; conditions: 72 hr post TBI
Excerpt: To study this in a model for prevention of progression of TBI pathologies into AD with resulting neuronal cell dysfunction and death, together with neuroinflammation, we used already ongoing, aged (10 to 12 month old) APP/PS1 AD transgenic (Tg) male mice were challenged with mTBI (concussive 30 g weight drop), followed by similar (−)-phenserine or vehicle post-treatment.
To similarly cross-validate this in the more complex model of aged (10 to 12 month old) APP/PS1 AD Tg male mice, animals were challenged with mTBI (concussive 30 g weight drop) followed by (−)-phenserine or vehicle post-treatment. […] Likewise, co-localization of proinflammatory TNF-α was elevated within IBA1+ microglia across brain regions in AD Tg APP/PS1 mice with and without mTBI, and this trend was mitigated by (−)-phenserine post treatment in mTBI challenged animals (FIG. 23).
(§1) (−)-Phenserine mitigates losses in synaptic integrity in wild and Tg mice subjected to weight drop injury. To evaluate whether mTBI-induced elevations in markers of cell loss (FJC) and neuroinflammation (TNF-α and IBA1+) are allied with a loss of synaptic integrity (which associates with cognitive loss (Wakade et al., 2010)), post- and pre-synaptic protein markers of synaptic integrity (post-synaptic density-95 (PSD-95) and synaptophysin, respectively) were immunohistochemically stained and quantified in control (w/o head injury) and mTBI challenged mice post-treated with vehicle or (−)-phenserine. […] These declines were mitigated by post treatment with (−)-phenserine. An alike trend was evident in mTBI challenged APP/PS1 AD Tg mice, and these reductions in post- and presynaptic proteins were similarly mitigated by post-treatment with (−)-phenserine (FIG. 25)

wild-type mice = test: Concussive mTBI in wild-type mice, immunohistochemistry 72 hr post injury; assay type: in vivo, mouse; conditions: 72 hr post TBI
Protocol: FIG. 18 illustrates (−)-Phenserine administration preventing mTBI-induced neurodegeneration in hippocampus and lateral cortex (72 hr post concussive TBI). […] Representative images of FJC staining in hippocampus (CA1) Magnification 60× (n=5/group; *p<0.05, **p<0.01, ***p<0.001 vs. Control (CTRL) sham by Tukey's post hoc test; ^^p<0.01 vs. mTBI alone by Tukey's post hoc test).
Neuroinflammation was evaluated by counting activated microglial cells experessing the marker IBA1 as well as by counting microglial cells co-expressing IBA1 and immunoreactivity for the pro-inflammatory cytokine TNF-α (Anti-IBA1 antibody: Abcam; anti-TNF-α antibody: Abbiotec). As evident in FIG. 20, activated microglial (IBA1 positive (+) staining) cells—a classical marker of neuroinflammation—were elevated in wild-type mice challenged with mTBI. (−)-Phenserine post-treatment mitigated this mTBI-induced effect (FIG. 20). Likewise, mTBI challenge induced a rise in IBA1+ activated microglial cells expressing the pro-inflammatory marker TNF-α (FIG. 21), which was similarly mitigated by (−)-phenserine post-treatment.
as §1

Lipophilicity (Log D) = assay type: physicochemical
[5] = pre-treatment, brain and SH-SY5Y cells
[6] = 5 mg/kg BID, hippocampus and lateral cortex

Chain of acetylcholinesterase (AChE) (P22303 32-574 with tags or gaps limits assumed): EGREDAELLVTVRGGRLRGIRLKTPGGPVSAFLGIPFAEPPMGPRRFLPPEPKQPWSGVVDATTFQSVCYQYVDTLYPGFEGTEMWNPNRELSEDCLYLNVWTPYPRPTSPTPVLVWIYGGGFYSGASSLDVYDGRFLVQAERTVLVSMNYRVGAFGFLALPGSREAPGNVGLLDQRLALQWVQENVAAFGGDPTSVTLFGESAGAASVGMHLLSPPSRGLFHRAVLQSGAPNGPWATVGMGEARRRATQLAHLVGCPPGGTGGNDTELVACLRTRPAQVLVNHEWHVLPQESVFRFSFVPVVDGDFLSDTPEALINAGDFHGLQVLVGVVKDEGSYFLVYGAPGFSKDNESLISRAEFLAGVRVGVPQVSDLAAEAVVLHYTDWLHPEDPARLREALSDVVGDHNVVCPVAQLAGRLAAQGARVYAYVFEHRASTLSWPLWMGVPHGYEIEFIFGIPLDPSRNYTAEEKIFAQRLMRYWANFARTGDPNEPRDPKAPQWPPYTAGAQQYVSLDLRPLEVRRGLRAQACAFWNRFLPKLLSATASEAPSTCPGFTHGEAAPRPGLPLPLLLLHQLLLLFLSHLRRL

## CN1CC[C@@]2(C)c3cc(OC(=O)Nc4ccccc4)ccc3N(C)[C@@H]12 [phenserine, (−)-phenylcarbamoyleseroline]
Sprague-Dawley rats; pre-treatment
  B-cell lymphoma 2 (Bcl-2) expression: increased
  body symmetry: improved
  brain-derived neurotrophic factor (BDNF) expression: increased
  cell death: reduced
  glial fibrillary acidic protein (GFAP) expression: decreased
Sprague-Dawley rats; pre-treatment twice daily prior to MCA occlusion
  brain infarction area: reduced
Sprague-Dawley rats; [5]
  activated-caspase 3 levels: decreased
  amyloid precursor protein (APP) expression: decreased
SH-SY5Y cells
  cell proliferation (neurotrophic actions): increasing cellular proliferation
[1]
  AChE inhibition in RBCs: 34%
[2]
  Brain:Plasma Partitioning: 6.8-10:1
  brain:blood partition: approx. 8:1
[3]; Hour 1
  Average Plasma Concentrations: 4.95 ng/mL
[3]; Hour 2
  Average Plasma Concentrations: 15.4 ng/mL
[3]; Hour 3
  Average Plasma Concentrations: 0.71 ng/mL
[3]; Hour 4
  Average Plasma Concentrations: 0.97 ng/mL
[4]; [6]
  mTBI-induced activation of microglia (IBA1+ cells): mitigated
  mTBI-induced neurodegeneration (Fluoro-Jade C+ cells): counteracted
[4]
  mTBI-induced reductions in synaptophysin and PSD-95: mitigated
[4]; hippocampus and lateral cortex
  mTBI-induced elevations in TNF-α within microglia (co-localized TNF-α and IBA1+ cells): mitigated
wild-type mice; [6]
  mTBI-induced neurodegeneration (Fluoro-Jade C+ cells): fully counteracted
wild-type mice
  mTBI-induced reductions in synaptophysin and PSD-95: mitigated
wild-type mice; hippocampus and lateral cortex
  mTBI-induced activation of microglia (IBA1+ cells): mitigated
  mTBI-induced elevations in TNF-α within microglia (co-localized TNF-α and IBA1+ cells): mitigated
Lipophilicity (Log D)
  logD: 2.2
